Consider 22 compounds from patent US10709709B2, “Substituted carbonucleoside derivatives useful as anticancer agents” (Pfizer Inc., priority 2016, dated 2020).

Assay [1] has as its target PRMT5/MEP50 protein complex (Homo sapiens (Human), UniProt O14744). Briefly: PRMT5 biochemical assay (3H-SAM methylation of H4(1-21) peptide, filter plate scintillation). Conditions: 10 nM PRMT5/MEP50 complex, 200 nM H4(1-21) peptide, 1 uM SAM, 25 minute incubation at room temperature. Summed up: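 Scintillation read-out: after 25 min at room temperature and a TCA stop, tritiated H4(1-21) product (peptide 200 nM) is caught on a filter plate. Reaction holds 10 nM PRMT5/MEP50 and 1 uM 3H-labelled plus cold SAM in 50 mM Tris pH 8.5 with MgCl2, EDTA and TCEP. IC50 values come from a 4-parameter dose-response fit.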

Assay [2] concerns A549 lung adenocarcinoma cells. As to the kind of experiment: A549 proliferation assay (Cell Titer Glo). The format is cell-based. Conditions: Homo sapiens, 7 days with compound, cell viability by Cell Titer Glo (ATP). Here is the method: A549 lung adenocarcinoma cells (American Type Culture Collection) were maintained in DMEM growth media (Life Technologies) supplemented with 10% v/v heat inactivated fetal bovine serum (Sigma) and cultured at 37° C., 5% CO2. Exponentially growing A549 cells were plated in 96-well black tissue culture treated plates (Corning) at a density of […] in a volume of 100 μl culture media and allowed to adhere overnight at 37° C., 5% CO2. The following day, compound plates were prepared by making nine-point 3.3-fold dilutions in DMSO with a top concentration of 10 mM. Compounds were further diluted in culture media and 11 μl was added to the cells (final top assay concentration was 10 μM and DMSO was 0.2%). Cells were incubated with compound at 37° C., 5% CO2 for 7 days with media and compound replacement on day 4. Cell viability was assayed on Day 7 by adding 100 μl Cell Titer Glo (Promega) reagent to the plate to measure the amount of ATP present in the cells. Luminescence was read using the Envision 2104 Multilabel Reader (Perkin Elmer). The 50% inhibitory concentration (IC50) was determined using a 4-parameter fit model normalized to the DMSO control in dose response.
Background: Cellular ATP, detected with luciferase, serves as a proxy for viable cell number.

Sequence of PRMT5/MEP50 protein complex (O14744 other isoform, or with tags, fused parts or gaps): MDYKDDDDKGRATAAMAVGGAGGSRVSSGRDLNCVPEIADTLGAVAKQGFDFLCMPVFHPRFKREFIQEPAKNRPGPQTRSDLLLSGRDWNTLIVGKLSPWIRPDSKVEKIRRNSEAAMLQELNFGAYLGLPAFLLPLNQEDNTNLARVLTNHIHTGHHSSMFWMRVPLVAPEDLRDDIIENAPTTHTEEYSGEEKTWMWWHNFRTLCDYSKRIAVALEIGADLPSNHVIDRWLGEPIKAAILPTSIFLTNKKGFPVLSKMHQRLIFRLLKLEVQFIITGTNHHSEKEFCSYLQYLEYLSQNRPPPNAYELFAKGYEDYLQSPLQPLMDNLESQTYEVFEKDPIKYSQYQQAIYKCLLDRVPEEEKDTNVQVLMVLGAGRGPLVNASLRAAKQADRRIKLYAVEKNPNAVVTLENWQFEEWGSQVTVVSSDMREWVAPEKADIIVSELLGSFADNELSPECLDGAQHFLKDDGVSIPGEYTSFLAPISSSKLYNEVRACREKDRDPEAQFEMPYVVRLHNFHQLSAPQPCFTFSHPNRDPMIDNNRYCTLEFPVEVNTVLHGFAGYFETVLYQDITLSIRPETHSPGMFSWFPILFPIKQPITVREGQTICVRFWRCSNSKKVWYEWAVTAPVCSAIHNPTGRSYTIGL
Sequence of PRMT5/MEP50 protein complex (Q9BQA1 whole entry partner): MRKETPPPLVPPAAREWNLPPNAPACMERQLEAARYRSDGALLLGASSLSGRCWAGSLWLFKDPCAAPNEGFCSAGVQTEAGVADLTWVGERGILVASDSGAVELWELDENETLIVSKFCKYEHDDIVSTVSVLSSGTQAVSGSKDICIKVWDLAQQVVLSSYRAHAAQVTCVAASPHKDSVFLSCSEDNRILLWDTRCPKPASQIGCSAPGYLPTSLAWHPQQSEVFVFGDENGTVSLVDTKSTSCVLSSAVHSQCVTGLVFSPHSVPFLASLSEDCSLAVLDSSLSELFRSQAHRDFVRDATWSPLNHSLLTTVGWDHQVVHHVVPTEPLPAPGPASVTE

Turning to `Nc1ncnc2c1c(F)cn2[C@@H]1C[C@H](Oc2cc(Cl)cc3c2CNCC3)[C@@H](O)[C@H]1O` [Example 102, (1S,2S,3R,5S)-3-(4-amino-5-fluoro-7H-pyrrolo[2,3-d]pyrimidin-7-yl)-5-((6-chloro-1,2,3,4-tetrahydroisoquinolin-8-yl)oxy)cyclopentane-1,2-diol], the IC50 in assay [1] came out at 1 nM; in assay [2] (A549, 168 h) it was 192 nM.

In the case of `Cc1ncnc2c1c(F)cn2[C@@H]1C[C@H](Oc2cc(Cl)cc3c2CNCC3)[C@@H](O)[C@H]1O` [Example 176, (1S,2S,3S,5R)-3-((6-chloro-1,2,3,4-tetrahydroisoquinolin-8-yl)oxy)-5-(5-fluoro-4-methyl-7H-pyrrolo[2,3-d]pyrimidin-7-yl)cyclopentane-1,2-diol], the IC50 in assay [1] turned out to be 2 nM; in assay [2] (A549, 168 h) it was 1560 nM.

Take `O[C@@H]1[C@H](O)[C@@H](Oc2cccc3c2CNCC3)C[C@H]1n1ccc2cncnc21` [Example 118, (1S,2S,3R,5S)-3-(7H-pyrrolo[2,3-d]pyrimidin-7-yl)-5-((1,2,3,4-tetrahydroisoquinolin-8-yl)oxy)cyclopentane-1,2-diol]: the IC50 in assay [1] was 2 nM; in assay [2] (A549, 168 h), 4840 nM.

Take `COc1cc(O[C@H]2C[C@@H](n3ccc4c(C)ncnc43)[C@H](O)[C@@H]2O)c2c(c1F)CCNC2` [Example 198, (1S,2S,3S,5R)-3-((5-fluoro-6-methoxy-1,2,3,4-tetrahydroisoquinolin-8-yl)oxy)-5-(4-methyl-7H-pyrrolo[2,3-d]pyrimidin-7-yl)cyclopentane-1,2-diol]: the half-maximal inhibitory concentration (IC50) was 1 nM in assay [1] and 3820 nM in assay [2] (A549, 168 h).

`Cc1ncnc2c1ccn2[C@@H]1C[C@H](Oc2cc(Cl)cc3c2CNCCO3)[C@@H](O)[C@H]1O` [Example 204, (1S,2S,3S,5R)-3-((8-chloro-2,3,4,5-tetrahydrobenzo[f][1,4]oxazepin-6-yl)oxy)-5-(4-methyl-7H-pyrrolo[2,3-d]pyrimidin-7-yl)cyclopentane-1,2-diol]: the IC50 in assay [1] is 2 nM; in assay [2] (A549, 168 h), 720 nM.

Consider `Nc1ncnc2c1c(Br)cn2[C@@H]1C[C@H](Oc2ccc(F)c3c2CNCC3)[C@@H](O)[C@H]1O` [Example 134, (1S,2S,3R,5S)-3-(4-amino-5-bromo-7H-pyrrolo[2,3-d]pyrimidin-7-yl)-5-((5-fluoro-1,2,3,4-tetrahydroisoquinolin-8-yl)oxy)cyclopentane-1,2-diol], for which the IC50 was 1 nM in assay [1] and 640 nM in assay [2] (A549, 168 h).

In the case of `Cc1ncnc2c1ccn2[C@@H]1C[C@H](Oc2cccc3c2CNCCO3)[C@@H](O)[C@H]1O` [Example 164, (1S,2S,3R,5S)-3-(4-methyl-7H-pyrrolo[2,3-d]pyrimidin-7-yl)-5-((2,3,4,5-tetrahydrobenzo[f][1,4]oxazepin-6-yl)oxy)cyclopentane-1,2-diol], the IC50 in assay [1] worked out at 4 nM; in assay [2] (A549, 168 h), 3860 nM.

Regarding `Cc1ncnc2c1ccn2[C@@H]1C[C@H](Oc2cc(Cl)c(F)c3c2CNCC3)[C@@H](O)[C@H]1O` [Example 93, (1S,2S,3S,5R)-3-((6-chloro-5-fluoro-1,2,3,4-tetrahydroisoquinolin-8-yl)oxy)-5-(4-methyl-7H-pyrrolo[2,3-d]pyrimidin-7-yl)cyclopentane-1,2-diol], the IC50 was determined as 1 nM in assay [1] and 140 nM in assay [2] (A549, 168 h).

As to `Cc1cc2c(c(O[C@H]3C[C@@H](n4cc(C)c5c(N)ncnc54)[C@H](O)[C@@H]3O)c1)CNCC2` [Example 122, (1S,2S,3R,5S)-3-(4-amino-5-methyl-7H-pyrrolo[2,3-d]pyrimidin-7-yl)-5-((6-methyl-1,2,3,4-tetrahydroisoquinolin-8-yl)oxy)cyclopentane-1,2-diol], the concentration for half-maximal inhibition (IC50) in assay [1] is 3 nM; in assay [2] (A549, 168 h), 4480 nM.

As for `Cc1ncnc2c1ccn2[C@@H]1C[C@H](Oc2cncc3c2CNCC3)[C@@H](O)[C@H]1O` [Example 95, (1S,2S,3R,5S)-3-(4-methyl-7H-pyrrolo[2,3-d]pyrimidin-7-yl)-5-((5,6,7,8-tetrahydro-2,6-naphthyridin-4-yl)oxy)cyclopentane-1,2-diol], the IC50 in assay [1] amounted to 6 nM; in assay [2] (A549, 168 h) it was 8130 nM.

In the case of `Nc1ncnc2c1c(F)cn2[C@@H]1C[C@H](Oc2cc(C(F)F)c(F)c3c2CNCC3)[C@@H](O)[C@H]1O` [Example 196, (1S,2S,3R,5S)-3-(4-amino-5-fluoro-7H-pyrrolo[2,3-d]pyrimidin-7-yl)-5-((6-(difluoromethyl)-5-fluoro-1,2,3,4-tetrahydroisoquinolin-8-yl)oxy)cyclopentane-1,2-diol], the half-maximal inhibitory concentration (IC50) in assay [1] stood at 1 nM; in assay [2] (A549, 168 h), 3 nM.

On to `Cc1ncnc2c1ccn2[C@@H]1C[C@H]([C@H](O)c2cc(F)c(F)c(F)c2)[C@@H](O)[C@H]1O` [Example 13, (1S,2R,3R,5R)-3-[(S)-hydroxy(3,4,5-trifluorophenyl)methyl]-5-(4-methyl-7H-pyrrolo[2,3-d]pyrimidin-7-yl)cyclopentane-1,2-diol], for which the figures for the IC50 in assay [1] and in assay [2] (168 h) were 16 nM and 971 nM, respectively.

In the case of `Cc1ncnc2c1ccn2[C@@H]1C[C@H](Oc2cc(C(F)F)cc3c2CNCC3)[C@@H](O)[C@H]1O` [Example 154, (1S,2S,3S,5R)-3-((6-(difluoromethyl)-1,2,3,4-tetrahydroisoquinolin-8-yl)oxy)-5-(4-methyl-7H-pyrrolo[2,3-d]pyrimidin-7-yl)cyclopentane-1,2-diol], the IC50 in assay [1] was 1 nM; in assay [2] (A549, 168 h) it was 2 nM.

Consider `Cc1ncnc2c1ccn2[C@@H]1C[C@H](Oc2ccc(Cl)c3c2CNCC3)[C@@H](O)[C@H]1O` [Example 86, (1S,2S,3S,5R)-3-((5-chloro-1,2,3,4-tetrahydroisoquinolin-8-yl)oxy)-5-(4-methyl-7H-pyrrolo[2,3-d]pyrimidin-7-yl)cyclopentane-1,2-diol], for which the IC50 in assay [1] amounted to 4 nM; in assay [2] (A549, 168 h), 1840 nM.

Consider `Cc1ncnc2c1ccn2[C@@H]1C[C@H](Oc2cc(Br)cc3c2CNCC3)[C@@H](O)[C@H]1O` [Example 89, (1S,2S,3S,5R)-3-((6-bromo-1,2,3,4-tetrahydroisoquinolin-8-yl)oxy)-5-(4-methyl-7H-pyrrolo[2,3-d]pyrimidin-7-yl)cyclopentane-1,2-diol], for which the 50% inhibitory concentration (IC50) in assay [1] is 1 nM; in assay [2] (A549, 168 h), 195 nM.

With `Nc1ncnc2c1c(F)cn2[C@@H]1C[C@H](Oc2cc(F)cc3c2CNCC3)[C@@H](O)[C@H]1O` [Example 107, (1S,2S,3R,5S)-3-(4-amino-5-fluoro-7H-pyrrolo[2,3-d]pyrimidin-7-yl)-5-((6-fluoro-1,2,3,4-tetrahydroisoquinolin-8-yl)oxy)cyclopentane-1,2-diol], the 50% inhibitory concentration (IC50) was determined as 1 nM in assay [1] and 991 nM in assay [2] (A549, 168 h).

`Nc1ncnc2c1c(F)cn2[C@@H]1C[C@H](Oc2cc(Cl)c(F)c3c2CNCC3)[C@@H](O)[C@H]1O` [Example 108, (1S,2S,3R,5S)-3-(4-amino-5-fluoro-7H-pyrrolo[2,3-d]pyrimidin-7-yl)-5-((6-chloro-5-fluoro-1,2,3,4-tetrahydroisoquinolin-8-yl)oxy)cyclopentane-1,2-diol]: the half-inhibitory concentration (IC50) in assay [1] was 1 nM; in assay [2] (A549, 168 h), 163 nM.

For `Nc1ncnc2c1c(F)cn2[C@@H]1C[C@H](Oc2cccc3c2CNCC3)[C@@H](O)[C@H]1O` [Example 99, (1S,2S,3R,5S)-3-(4-amino-5-fluoro-7H-pyrrolo[2,3-d]pyrimidin-7-yl)-5-((1,2,3,4-tetrahydroisoquinolin-8-yl)oxy)cyclopentane-1,2-diol], the half-maximal inhibitory concentration (IC50) in assay [1] stood at 2 nM; in assay [2] (A549, 168 h) it was 728 nM.

`Cc1ncnc2c1ccn2[C@@H]1C[C@H](Oc2cc(C(F)(F)F)cc3c2CNCC3)[C@@H](O)[C@H]1O` [Example 90, (1S,2S,3R,5S)-3-(4-methyl-7H-pyrrolo[2,3-d]pyrimidin-7-yl)-5-((6-(trifluoromethyl)-1,2,3,4-tetrahydroisoquinolin-8-yl)oxy)cyclopentane-1,2-diol]: the IC50 in assay [1] was found to be 2 nM; in assay [2] (A549, 168 h), 948 nM.

In the case of `Cc1ncnc2c1ccn2[C@@H]1C[C@H](Oc2cc(C(F)F)cc3c2CNCCO3)[C@@H](O)[C@H]1O` [Example 205, (1S,2S,3S,5R)-3-((8-(difluoromethyl)-2,3,4,5-tetrahydrobenzo[f][1,4]oxazepin-6-yl)oxy)-5-(4-methyl-7H-pyrrolo[2,3-d]pyrimidin-7-yl)cyclopentane-1,2-diol], the concentration for half-maximal inhibition (IC50) in assay [2] (A549, 168 h) turned out to be 248 nM.

As to `Cc1ncnc2c1ccn2[C@@H]1C[C@H](Oc2cc(OC(F)F)c(F)c3c2CNCC3)[C@@H](O)[C@H]1O` [Example 200, (1S,2S,3S,5R)-3-((6-(difluoromethoxy)-5-fluoro-1,2,3,4-tetrahydroisoquinolin-8-yl)oxy)-5-(4-methyl-7H-pyrrolo[2,3-d]pyrimidin-7-yl)cyclopentane-1,2-diol], in assay [2] (A549, 168 h), the half-maximal inhibitory concentration (IC50) is 140 nM.

Take `Nc1ncnc2c1c(Br)cn2[C@@H]1C[C@H](Oc2cc(Cl)cc3c2CNCC3)[C@@H](O)[C@H]1O` [Example 131]: the IC50 in assay [2] (A549, 168 h) was found to be 482 nM.

The term IC50 denotes the concentration that inhibits the measured activity by half.
